Literature values in publication PMC2785468, “Androgen Receptor Mutations Associated with Androgen Insensitivity Syndrome: A High Content Analysis Approach Leading to Personalized Medicine” (PLoS ONE, 2009).

Assays:
R840C mutated receptor = conditions: transfected CV1 cells; cited from earlier work
mutant F764L = conditions: transfected CHO cells; cited from earlier work
F764L mutation = tested on: F764L mutation; parameters: method as in PMID 7929841; conditions: MMTV-luc reporter, transfected CV1 cells; cited from earlier work
P766S = tested on: P766S; parameters: method as in PMID 7929841; conditions: cited from earlier work

C[C@]12CCC(=O)C[C@@H]1CC[C@@H]1[C@@H]2CC[C@]2(C)[C@@H](O)CC[C@@H]12 [DHT, dihydrotestosterone]
transcriptional activity, % of control (R840C mutated receptor): 67%
Kd (mutant F764L): 0.1 nM
transcriptional activity (in words) (F764L mutation): significantly decreased transcriptional activity
transcriptional activity, % of control (P766S): 9%
